# Assay results published in patent US8785499B2 (priority 2009, dated 2014).
# Read-outs that look alike come from different tables or passages of the source.
# Legend:
# ecNadD = ecNadD (Escherichia coli (strain K12), UniProt P0A752); experiment: biochemical; format: biochemical; conditions: for inhibition at 100 µM: read-out: INHIBITION (%) E. coli; for IC50: IC50 ecNadD
# baNadD = baNadD (Bacillus anthracis, UniProt C3L5T6); experiment: biochemical; format: biochemical; conditions: for inhibition at 50 µM: read-out: INHIBITION (%) B. anthracis
# baNadD, sequence (C3L5T6 whole entry, looked up): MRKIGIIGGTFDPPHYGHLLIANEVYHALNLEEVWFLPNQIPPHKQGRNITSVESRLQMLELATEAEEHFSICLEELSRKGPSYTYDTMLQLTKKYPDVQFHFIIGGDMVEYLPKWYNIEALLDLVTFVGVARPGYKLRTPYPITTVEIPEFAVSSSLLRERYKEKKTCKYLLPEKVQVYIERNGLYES
Compound,[…]. coli (ecNadD) [%],[…]. anthracis (baNadD) [%],inhibition at 100 µM (ecNadD) [%],inhibition at 50 µM (baNadD) [%],further results
CSc1ccc(CNc2ccc(S(N)(=O)=O)cc2)cc1 [compound 150],5,0,,,
NS(=O)(=O)c1ccc(NC(=S)NCCc2c[nH]c3ccccc23)cc1 [compound 206],0,25,,,
O=C(Nc1ccccc1C(=O)O)c1ccc(Br)o1 [compound 036],20,0,,,
NS(=O)(=O)c1ccc(N/C=C/C(=O)c2ccc(Cl)s2)cc1 [compound 021],24,79,,,
Cc1ccc(-c2nnc(SCC(=O)O)[nH]2)cc1 [compound 160],4,0,,,
O=C1Nc2ccccc2/C1=C/NC1CCCCC1 [15_33],,,6,15,
O=C(O)c1ccc(-n2ncc(Cl)c(Cl)c2=O)cc1 [compound 217],0,0,,,
O=C(CSc1nc2ccccc2[nH]1)Nc1cccc(C(=O)O)c1 [compound 248],0,4,,,
Nc1c(C(=O)Nc2ccc(Cl)cc2)sc2nc(-c3ccncc3)ccc12 [03_29],,,0,0,
Cc1ccc(NC(=O)CCC(=O)N/N=C/c2cccc(Br)c2)cc1 [01_08],,,75,74,
C=CCSc1nnc(-c2cc(Br)ccc2N)c(O)n1 [compound 187],2,0,,,
CSc1nc2nc(N)nc(N)c2s1 [compound 251],0,0,,,
CSc1ccc(N/C=C2\C(=O)Nc3ccccc32)cc1 [15_12],,,12,25,
O=C(Nc1ccc(O)cc1)c1ccc(Cl)c(Cl)c1 [compound 086],11,0,,,
N/C(=N\OCC(=O)Nc1ccc([NH2+][O-])cc1)c1nonc1N [compound 062],14,0,,,
NS(=O)(=O)c1cc(C(=O)OCC(=O)c2ccccc2)ccc1Cl [compound 269],0,22,,,
O=C(NNC(=O)c1ccccc1C(=O)O)c1ccc(Cl)cc1 [compound 195],1,0,,,
O=C(O)c1nccnc1C(=O)Nc1ccc(Br)cc1 [compound 031],21,4,,,
CSc1cccc(NS(=O)(=O)c2ccc(Cl)cc2)c1 [compound 306],0,0,,,
O=C(O)c1ccc([N+](=O)[O-])cc1C(=O)Nc1ccc(Cl)cc1 [compound 016],29,75,,,
CCn1c(CNc2ccc(F)cc2)nnc1SCC(N)=O [compound 298],0,0,,,
Cc1cc(S(=O)(=O)Nc2cccc(C(=O)O)c2)ccc1Cl [compound 199],0,0,,,
CC1=C(C)CC(C(=O)Nc2ccc(I)cc2)C(C(=O)O)C1 (stereo not drawn) [compound 144],6,65,,,
NS(=O)(=O)c1ccc(NCc2cccc(Cl)c2Cl)cc1 [compound 157],5,0,,,

Compound,[…]. coli (ecNadD) [%],[…]. anthracis (baNadD) [%],inhibition at 100 µM (ecNadD) [%],inhibition at 50 µM (baNadD) [%],further results
O=S(=O)(NCCc1ccccc1)c1ccc(Br)s1 [compound 307],0,0,,,
Nc1c(C(=O)Nc2ccc(F)cc2)sc2nc(-c3ccc(F)cc3)ccc12 [03_25],,,8,1,
Nc1c(C(=O)Nc2ccc(Cl)cc2F)sc2nc(-c3ccc(F)cc3)ccc12 [03_19],,,32,61,
O=C(CSc1nc2ccccc2o1)Nc1nncs1 [compound 229],0,0,,,
COC(=O)c1sc(NC(=O)/C=C/C(=O)O)nc1C [compound 009],45,0,,,
Nc1nc(SCC(=O)NCC2CCCO2)n[nH]1 (stereo not drawn) [compound 173],3,0,,,
O=C(CSc1nnc[nH]1)Nc1ccc(I)cc1 [compound 129],7,0,,,
O=C(O)CC(NC(=O)c1ccccc1NC(=O)c1ccco1)C(=O)O (stereo not drawn) [compound 089],10,37,,,
O=C(O)c1ccc(-c2ccc(C(=O)O)c(C(=O)O)c2)cc1C(=O)O [compound 275],0,0,,,
O=C(Nc1ccc(Cl)cn1)c1cccnc1 [compound 279],0,0,,,
COc1ccc(N/C=C2\C(=O)Nc3ccccc32)cc1 [15_25],,,9,16,
O=C(CCC(=O)Nc1ccc(Br)cc1)N/N=C/c1ccc(F)cc1 [01_15],,,47,22,IC50 (baNadD; read-out: IC50 baNadD): 122 µM
Cn1c(SCC(N)=O)nnc1-c1ccc(Br)cc1 [compound 286],0,0,,,
NS(=O)(=O)c1ccc(/N=C/c2ccc(Cl)cc2Cl)cc1 [compound 118],8,0,,,
Nc1ccc(NC(=O)c2cc(Cl)ccc2O)c(Cl)c1 [compound 043],18,2,,,
O=C(CCC(=O)Nc1ccc(Br)cc1)N/N=C/C=C/c1ccccc1 [01_12],,,68,75,IC50 (baNadD; IC50 baNadD): 48 µM
Cc1ccc(N/C=C2\C(=O)Nc3ccccc32)cc1 [15_29],,,7,38,
Nc1c(C(=O)Nc2ccc(Cl)cc2)sc2nc(-c3ccc(F)cc3)ccc12 [03_08],,,68,28,IC50 (ecNadD): > 200 µM; IC50 (baNadD; IC50 baNadD): > 200 µM
O=C(O)c1ccc(-c2ccccc2F)o1 [compound 234],0,0,,,
O=C(Nc1ccc([N+](=O)[O-])cn1)c1sc2ccccc2c1Cl [compound 186],2,9,,,
O=C(NCCNc1ccc([N+](=O)[O-])cc1)c1ccccc1Br [compound 260],0,0,,,
Cc1ccc(/C=N/NC(=O)CCC(=O)Nc2ccc(C)cc2)cc1 [01_14],,,60,70,
CC(Sc1ccccc1)C(=O)Nc1ccccc1C(=O)O (stereo not drawn) [compound 055],15,15,,,
CSc1cccc(NS(=O)(=O)c2ccc(F)cc2)c1 [compound 208],0,0,,,

Compound,[…]. coli (ecNadD) [%],[…]. anthracis (baNadD) [%],inhibition at 100 µM (ecNadD) [%],inhibition at 50 µM (baNadD) [%],further results
O=[N+]([O-])c1cc(Cl)ccc1NCCCNS(=O)(=O)c1ccccc1 [compound 165],4,0,,,
O=C(O)c1cc(Cl)c(Cl)cc1C(=O)Nc1ccc(O)cc1 [compound 107],9,0,,,
Cc1cccc(N/C=C2\C(=O)Nc3ccccc32)n1 [15_20],,,11,8,
O=C(Nc1ccc(NC(=O)c2cccs2)cc1)c1ccccc1 [compound 020],26,0,,,
Cc1ccc(N/C=C2\C(=O)Nc3ccccc32)cc1Cl [15_01],,,24,37,IC50 (ecNadD): > 200 µM; IC50 (baNadD; IC50 baNadD): > 200 µM
O=C(Cn1cnc2ccccc2c1=O)Nc1nccs1 [compound 145],6,0,,,
O=[N+]([O-])c1ccc2[nH]c(CCc3nc4cc([N+](=O)[O-])ccc4[nH]3)nc2c1 [compound 252],0,0,,,
CCc1ccc(N/C=C2\C(=O)Nc3ccccc32)cc1 [15_24],,,9,17,
CC(=O)NC(=S)Nc1ccc(Cl)c(Cl)c1 [compound 244],0,0,,,
Brc1ccc2ncnc(NCc3cccnc3)c2c1 [compound 225],0,55,,,
Cc1cc(C)c(N/C=C2\C(=O)Nc3ccccc32)c(C)c1 [15_21],,,10,30,
O=C(O)CSc1cccc(SCC(=O)O)c1 [compound 293],0,5,,,
Nc1c(C(=O)Nc2ccc(F)cc2)sc2nc(-c3ccncc3)ccc12 [03_06],,,80,40,IC50 (ecNadD): > 200 µM; IC50 (baNadD; IC50 baNadD): > 200 µM
Nc1c(C(=O)Nc2c(Cl)cccc2Cl)sc2nc(-c3cccnc3)ccc12 [03_20],,,24,11,IC50 (ecNadD): > 200 µM; IC50 (baNadD; IC50 baNadD): > 200 µM
CSc1ccc(/C=N/c2ccc(S(N)(=O)=O)cc2)cc1 [compound 076],12,0,,,
O=C(CCC(=O)Nc1ccc(Br)cc1)N/N=C/c1ccc(Br)cc1 [01_09],,,74,68,
CCc1ccccc1N/C=C1\C(=O)Nc2ccccc21 [15_27],,,8,42,IC50 (ecNadD): > 200 µM; IC50 (baNadD; IC50 baNadD): > 200 µM
O=C(O)c1cc(NS(=O)(=O)c2cccc3nsnc23)cc(C(=O)O)c1 [compound 153],5,0,,,
COC(=O)c1ccc(NC(=O)CNc2ccc(C(=O)O)cc2)cc1 [compound 258],0,0,,,
Nc1c(C(=O)Nc2ccc(F)c(Cl)c2)sc2nc(-c3ccc(F)cc3)ccc12 [03_13],,,52,26,
Cc1ccc(NC(=S)NC(=O)c2ccc(F)cc2)nc1 [compound 105],9,51,,,
Cc1ccc(CN/C=C2\C(=O)Nc3ccccc32)cc1 [15_38],,,3,17,
O=C(CSc1n[nH]c(=O)[nH]c1=O)N/N=C\c1ccc(Br)cc1 [compound 189],1,0,,,
N=C1NC(=O)C(Cc2ccccc2Cl)S1 (stereo not drawn) [compound 198],0,7,,,
